What was measured:
[1] = Drug uptake in anesthetized cynomolgus monkey brain occipital lobe after 202.5 mins postinjection; type: ADME, organism-based, Macaca fascicularis; conditions: in vivo, 3.375 h
[2] = Drug uptake in anesthetized cynomolgus monkey brain frontal lobe after 187.5 mins postinjection; type: ADME, organism-based, Macaca fascicularis; conditions: in vivo, 3.125 h
Putamen [3] = test: Drug uptake in anesthetized cynomolgus monkey brain putamen after 187.5 mins postinjection; type: ADME, organism-based, Macaca fascicularis; conditions: in vivo, 3.125 h
Putamen [4] = test: Drug uptake in anesthetized cynomolgus monkey brain putamen after 192.5 mins postinjection; type: ADME, organism-based, Macaca fascicularis; conditions: in vivo
Putamen [5] = test: Drug uptake in anesthetized cynomolgus monkey brain putamen after 197.5 mins postinjection; type: ADME, organism-based, Macaca fascicularis; conditions: in vivo
Putamen [6] = test: Drug uptake in anesthetized cynomolgus monkey brain putamen after 202.5 mins postinjection; type: ADME, organism-based, Macaca fascicularis; conditions: in vivo, 3.375 h
Putamen [7] = test: Drug uptake in anesthetized cynomolgus monkey brain putamen after 207.5 mins postinjection; type: ADME, organism-based, Macaca fascicularis; conditions: in vivo
[8] = Drug uptake in awake rhesus monkey brain frontal lobe after 25 mins postinjection; type: ADME, organism-based, Macaca mulatta; conditions: in vivo
[9] = Drug uptake in awake rhesus monkey brain frontal lobe after 75 mins postinjection; type: ADME, organism-based, Macaca mulatta; conditions: in vivo, 1.25 h
[10] = Drug uptake in awake rhesus monkey brain medulla after 10.5 mins postinjection; type: ADME, organism-based, Macaca mulatta; conditions: in vivo, 0.175 h
Midbrain [11] = test: Drug uptake in anesthetized cynomolgus monkey brain midbrain after 182.5 mins postinjection; type: ADME, organism-based, Macaca fascicularis; conditions: in vivo
Midbrain [12] = test: Drug uptake in anesthetized cynomolgus monkey brain midbrain after 192.5 mins postinjection; type: ADME, organism-based, Macaca fascicularis; conditions: in vivo
Midbrain [13] = test: Drug uptake in anesthetized cynomolgus monkey brain midbrain after 197.5 mins postinjection; type: ADME, organism-based, Macaca fascicularis; conditions: in vivo
Midbrain [14] = test: Drug uptake in anesthetized cynomolgus monkey brain midbrain after 202.5 mins postinjection; type: ADME, organism-based, Macaca fascicularis; conditions: in vivo, 3.375 h
[15] = Drug uptake in awake rhesus monkey brain medulla after 35 mins postinjection; type: ADME, organism-based, Macaca mulatta; conditions: in vivo
[16] = Drug uptake in awake rhesus monkey brain medulla after 55 mins postinjection; type: ADME, organism-based, Macaca mulatta; conditions: in vivo
[17] = Drug uptake in awake rhesus monkey brain medulla after 65 mins postinjection; type: ADME, organism-based, Macaca mulatta; conditions: in vivo
[18] = Drug uptake in awake rhesus monkey brain medulla after 95 mins postinjection; type: ADME, organism-based, Macaca mulatta; conditions: in vivo
[19] = Drug uptake in awake rhesus monkey brain pons after 25 mins postinjection; type: ADME, organism-based, Macaca mulatta; conditions: in vivo
[20] = Drug uptake in awake rhesus monkey brain pons after 75 mins postinjection; type: ADME, organism-based, Macaca mulatta; conditions: in vivo, 1.25 h
[21] = Drug uptake in awake rhesus monkey brain midbrain after 7.5 mins postinjection; type: ADME, organism-based, Macaca mulatta; conditions: in vivo, 0.125 h
[22] = Drug uptake in awake rhesus monkey brain midbrain after 25 mins postinjection; type: ADME, organism-based, Macaca mulatta; conditions: in vivo
[23] = Drug uptake in awake rhesus monkey brain midbrain after 35 mins postinjection; type: ADME, organism-based, Macaca mulatta; conditions: in vivo
[24] = Drug uptake in awake rhesus monkey brain midbrain after 55 mins postinjection; type: ADME, organism-based, Macaca mulatta; conditions: in vivo
[25] = Drug uptake in awake rhesus monkey brain midbrain after 85 mins postinjection; type: ADME, organism-based, Macaca mulatta; conditions: in vivo
[26] = Drug uptake in awake rhesus monkey brain midbrain after 105 mins postinjection; type: ADME, organism-based, Macaca mulatta; conditions: in vivo, 1.75 h
Pons [27] = test: Drug uptake in anesthetized cynomolgus monkey brain pons after 192.5 mins postinjection; type: ADME, organism-based, Macaca fascicularis; conditions: in vivo
Pons [28] = test: Drug uptake in anesthetized cynomolgus monkey brain pons after 197.5 mins postinjection; type: ADME, organism-based, Macaca fascicularis; conditions: in vivo
Pons [29] = test: Drug uptake in anesthetized cynomolgus monkey brain pons after 207.5 mins postinjection; type: ADME, organism-based, Macaca fascicularis; conditions: in vivo
[30] = Ratio of drug uptake in putamen to cerebellum in awake rhesus monkey after 45 mins postinjection; type: ADME, organism-based, Macaca mulatta; conditions: in vivo, 0.75 h
[31] = Ratio of drug uptake in putamen to cerebellum in awake rhesus monkey after 105 mins postinjection; type: ADME, organism-based, Macaca mulatta; conditions: in vivo, 1.75 h
[32] = Ratio of drug uptake in thalamus to cerebellum in awake rhesus monkey after 17.5 mins postinjection; type: ADME, organism-based, Macaca mulatta; conditions: in vivo
[33] = Drug uptake in awake rhesus monkey brain putamen after 65 mins postinjection; type: ADME, organism-based, Macaca mulatta; conditions: in vivo
[34] = Drug uptake in awake rhesus monkey brain putamen after 75 mins postinjection; type: ADME, organism-based, Macaca mulatta; conditions: in vivo, 1.25 h
[35] = Drug uptake in awake rhesus monkey brain putamen after 95 mins postinjection; type: ADME, organism-based, Macaca mulatta; conditions: in vivo
[36] = Drug uptake in awake rhesus monkey brain caudate after 13.5 mins postinjection; type: ADME, organism-based, Macaca mulatta, Caudate nucleus; conditions: in vivo, 0.225 h
[37] = Drug uptake in awake rhesus monkey brain caudate after 55 mins postinjection; type: ADME, organism-based, Macaca mulatta, Caudate nucleus; conditions: in vivo
[38] = Drug uptake in awake rhesus monkey brain caudate after 85 mins postinjection; type: ADME, organism-based, Macaca mulatta, Caudate nucleus; conditions: in vivo
[39] = Drug uptake in awake rhesus monkey brain caudate after 95 mins postinjection; type: ADME, organism-based, Macaca mulatta, Caudate nucleus; conditions: in vivo
[40] = Drug uptake in awake rhesus monkey brain thalamus after 10.5 mins postinjection; type: ADME, organism-based, Macaca mulatta; conditions: in vivo, 0.175 h
[41] = Ratio of drug uptake in pons to cerebellum in awake rhesus monkey after 7.5 mins postinjection; type: ADME, organism-based, Macaca mulatta; conditions: in vivo, 0.125 h
[42] = Ratio of drug uptake in pons to cerebellum in awake rhesus monkey after 10.5 mins postinjection; type: ADME, organism-based, Macaca mulatta; conditions: in vivo, 0.175 h
Medulla [43] = test: Drug uptake in anesthetized cynomolgus monkey brain medulla after 192.5 mins postinjection; type: ADME, organism-based, Macaca fascicularis; conditions: in vivo
Medulla [44] = test: Drug uptake in anesthetized cynomolgus monkey brain medulla after 202.5 mins postinjection; type: ADME, organism-based, Macaca fascicularis; conditions: in vivo, 3.375 h
[45] = Drug uptake in anesthetized cynomolgus monkey brain cerebellum after 192.5 mins postinjection; type: ADME, organism-based, Macaca fascicularis; conditions: in vivo
[46] = Drug uptake in anesthetized cynomolgus monkey brain cerebellum after 197.5 mins postinjection; type: ADME, organism-based, Macaca fascicularis; conditions: in vivo
[47] = Drug uptake in anesthetized cynomolgus monkey brain cerebellum after 202.5 mins postinjection; type: ADME, organism-based, Macaca fascicularis; conditions: in vivo, 3.375 h
[48] = Ratio of drug uptake in thalamus to cerebellum in awake rhesus monkey after 105 mins postinjection; type: ADME, organism-based, Macaca mulatta; conditions: in vivo, 1.75 h
[49] = Drug uptake in awake rhesus monkey brain thalamus after 65 mins postinjection; type: ADME, organism-based, Macaca mulatta; conditions: in vivo
[50] = Drug uptake in awake rhesus monkey brain thalamus after 95 mins postinjection; type: ADME, organism-based, Macaca mulatta; conditions: in vivo
Caudate [51] = test: Drug uptake in anesthetized cynomolgus monkey brain caudate after 182.5 mins postinjection; type: ADME, organism-based, Macaca fascicularis, Caudate nucleus; conditions: in vivo
Caudate [52] = test: Drug uptake in anesthetized cynomolgus monkey brain caudate after 187.5 mins postinjection; type: ADME, organism-based, Macaca fascicularis, Caudate nucleus; conditions: in vivo, 3.125 h
Caudate [53] = test: Drug uptake in anesthetized cynomolgus monkey brain caudate after 192.5 mins postinjection; type: ADME, organism-based, Macaca fascicularis, Caudate nucleus; conditions: in vivo
Caudate [54] = test: Drug uptake in anesthetized cynomolgus monkey brain caudate after 202.5 mins postinjection; type: ADME, organism-based, Macaca fascicularis, Caudate nucleus; conditions: in vivo, 3.375 h
Caudate [55] = test: Drug uptake in anesthetized cynomolgus monkey brain caudate after 207.5 mins postinjection; type: ADME, organism-based, Macaca fascicularis, Caudate nucleus; conditions: in vivo
[56] = Ratio of drug uptake in medulla to cerebellum in awake rhesus monkey after 4.5 mins postinjection; type: ADME, organism-based, Macaca mulatta; conditions: in vivo, 0.075 h
[57] = Drug uptake in awake rhesus monkey brain cerebellum after 25 mins postinjection; type: ADME, organism-based, Macaca mulatta; conditions: in vivo
[58] = Drug uptake in awake rhesus monkey brain cerebellum after 45 mins postinjection; type: ADME, organism-based, Macaca mulatta; conditions: in vivo, 0.75 h
[59] = Ratio of drug uptake in midbrain to cerebellum in awake rhesus monkey after 85 mins postinjection; type: ADME, organism-based, Macaca mulatta; conditions: in vivo
Thalamus [60] = test: Drug uptake in anesthetized cynomolgus monkey brain thalamus after 187.5 mins postinjection; type: ADME, organism-based, Macaca fascicularis; conditions: in vivo, 3.125 h
Thalamus [61] = test: Drug uptake in anesthetized cynomolgus monkey brain thalamus after 192.5 mins postinjection; type: ADME, organism-based, Macaca fascicularis; conditions: in vivo
Thalamus [62] = test: Drug uptake in anesthetized cynomolgus monkey brain thalamus after 207.5 mins postinjection; type: ADME, organism-based, Macaca fascicularis; conditions: in vivo
[63] = Ratio of drug uptake in medulla to cerebellum in anesthetized cynomolgus monkey after 6.5 mins postinjection; type: ADME, organism-based, Macaca fascicularis; conditions: in vivo
[64] = Drug uptake in anesthetized cynomolgus monkey brain occipital lobe after 12.5 mins postinjection; type: ADME, organism-based, Macaca fascicularis; conditions: in vivo
[65] = Drug uptake in anesthetized cynomolgus monkey brain frontal lobe after 135 mins postinjection; type: ADME, organism-based, Macaca fascicularis; conditions: in vivo, 2.25 h
[66] = Ratio of drug uptake in caudate to cerebellum in anesthetized cynomolgus monkey after 185 mins postinjection; type: ADME, organism-based, Macaca fascicularis; conditions: in vivo
[67] = Ratio of drug uptake in caudate to cerebellum in anesthetized cynomolgus monkey after 195 mins postinjection; type: ADME, organism-based, Macaca fascicularis; conditions: in vivo, 3.25 h
[68] = Drug uptake in anesthetized cynomolgus monkey brain cerebellum after 55 mins postinjection; type: ADME, organism-based, Macaca fascicularis; conditions: in vivo
[69] = Drug uptake in anesthetized cynomolgus monkey brain cerebellum after 125 mins postinjection; type: ADME, organism-based, Macaca fascicularis; conditions: in vivo
[70] = Drug uptake in anesthetized cynomolgus monkey brain cerebellum after 145 mins postinjection; type: ADME, organism-based, Macaca fascicularis; conditions: in vivo

O=C(OCC[18F])C1C2CCC(CC1c1cccc(/C=C\I)c1)N2 (stereo not given)
Drug uptake [1]: 1.33
Drug uptake [2]: 1.65
Drug uptake (Putamen [3]): 2.77
Drug uptake (Putamen [4]): 2.67
Drug uptake (Putamen [5]): 2.63
Drug uptake (Putamen [6]): 2.63
Drug uptake (Putamen [7]): 2.58
Drug uptake [8]: 0.11
Drug uptake [9]: 0.11
Drug uptake [10]: 0.09
Drug uptake (Midbrain [11]): 3.4
Drug uptake (Midbrain [12]): 3.24
Drug uptake (Midbrain [13]): 3.2
Drug uptake (Midbrain [14]): 3.15
Drug uptake [15]: 0.12
Drug uptake [16]: 0.12
Drug uptake [17]: 0.12
Drug uptake [18]: 0.11
Drug uptake [19]: 0.12
Drug uptake [20]: 0.14
Drug uptake [21]: 0.08
Drug uptake [22]: 0.13
Drug uptake [23]: 0.14
Drug uptake [24]: 0.16
Drug uptake [25]: 0.16
Drug uptake [26]: 0.15
Drug uptake (Pons [27]): 2.14
Drug uptake (Pons [28]): 2.25
Drug uptake (Pons [29]): 2.19
Ratio [30]: 1.5
Ratio [31]: 1.5
Ratio [32]: 1.3
Drug uptake [33]: 0.16
Drug uptake [34]: 0.17
Drug uptake [35]: 0.16
Drug uptake [36]: 0.09
Drug uptake [37]: 0.15
Drug uptake [38]: 0.14
Drug uptake [39]: 0.14
Drug uptake [40]: 0.12
Ratio [41]: 1
Ratio [42]: 0.9
Drug uptake (Medulla [43]): 2.52
Drug uptake (Medulla [44]): 2.54
Drug uptake [45]: 1.49
Drug uptake [46]: 1.41
Drug uptake [47]: 1.43
Ratio [48]: 1.7
Drug uptake [49]: 0.17
Drug uptake [50]: 0.16
Drug uptake (Caudate [51]): 2.31
Drug uptake (Caudate [52]): 2.26
Drug uptake (Caudate [53]): 2.28
Drug uptake (Caudate [54]): 2.21
Drug uptake (Caudate [55]): 2.16
Ratio [56]: 1.1
Drug uptake [57]: 0.11
Drug uptake [58]: 0.12
Ratio [59]: 1.6
Drug uptake (Thalamus [60]): 2.65
Drug uptake (Thalamus [61]): 2.56
Drug uptake (Thalamus [62]): 2.43

O=C(OCC[18F])C1C2CCC(CC1c1cccc(/C=C\Br)c1)N2 (stereo not given)
Ratio [63]: 1.3
Drug uptake [64]: 2.68
Drug uptake [65]: 2.56
Ratio [66]: 1.8
Ratio [67]: 1.7
Drug uptake [68]: 3.61
Drug uptake [69]: 2.68
Drug uptake [70]: 2.35

Reference: ChEMBL document CHEMBL1151757, “Synthesis, radiosynthesis, and biological evaluation of fluorine-18-labeled 2beta-carbo(fluoroalkoxy)-3beta-(3'-((Z)-2-haloethenyl)phenyl)nortropanes: candidate radioligands for in vivo imaging of the serotonin transporter with positron emission tomography” (J Med Chem, 2008)
